Results as given in patent US20210369652A1, “Nonhormonal Unisex Contraceptives” (The Regents of the University of California, priority 2019, published 2021).
“Also recorded” adds a separate entry of the source.

Tests used:
ANT = target: T1, ANT (Mus musculus, UniProt P48962); experiment: Whole-IMM patch-clamp recording of H+ current (IH) in mitoplasts; assay type: biochemical, mice; conditions: for ANT-mediated H+ current (IH), regulators: skeletal muscle mitoplast, 2 μM AA, then 1 mM bath ADP, step from 0 to -160 mV
T1 construct: functional analysis of mitochondrial ion channels and transporters in their native membrane environment; from tissue; host or cells: heart mitoplasts (WT and ANT1-/- mice); skeletal muscle mitoplasts
T1 sequence (P48962 2-298): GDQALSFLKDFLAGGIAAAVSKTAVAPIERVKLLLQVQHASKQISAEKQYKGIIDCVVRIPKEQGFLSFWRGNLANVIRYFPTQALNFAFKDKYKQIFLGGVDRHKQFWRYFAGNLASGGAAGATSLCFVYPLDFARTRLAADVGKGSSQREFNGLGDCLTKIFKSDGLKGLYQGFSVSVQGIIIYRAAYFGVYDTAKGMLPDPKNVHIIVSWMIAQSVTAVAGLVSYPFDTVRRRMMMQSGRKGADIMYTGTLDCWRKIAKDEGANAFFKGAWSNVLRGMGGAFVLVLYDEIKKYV
Source text: FIG. 3A-B is a pair of schematic diagrams depicting a mitochondrial patch-clamp. (A) Preparation of mitoplasts (vesicles of the whole IMM): (1) Isolation of mitochondria from cell lysate by centrifugation; (2) OMM removal using a low-pressure French press; (3) isolated mitoplasts in a KCl solution. Remnants of the OMM (arrow) are attached to the IMM. (B) Patch-clamp recording from mitoplasts. After formation of the gigaohm seal (mitoplast-attached configuration), the membrane patch under the pipette can be destroyed by high-amplitude voltage pulses to form a whole-mitoplast configuration for recording currents (I) across the whole IMM. Alternatively, the patch pipette can be withdrawn from the mitoplast to form an inside-out mode for recording single-channel activity.
FIG. 4 is a series of graphs (upper panels) and a schematic diagram (lower panel) showing regulators of ANT-mediated H^+ current (IH). […] Control current is shown in black. Middle panel: IH time course of the left panel. Skeletal muscle mitoplast. IH amplitudes were measured upon stepping from 0 to −160 mV. Right panel: ADP inhibition of IH in points 2 and 3. Remaining IH measured at −160 mV is shown as a percentage of control, n=8. Explanation of transient IH inhibition by cytosolic adenine nucleotides. ANT in c-state, with fatty acid (FA) anion in the translocation pathway, mediates IH (I). Cytosolic ADP^3− binds in c-state and expels FA anion/blocks translocation pathway, leading to IH inhibition (2). Upon ANT conformation change, ADP dissociates into matrix (pipette) solution (2 and 3). FA anion re-associates with ANT in m-state, restoring IH (4 and 5). Cytosolic ADP cannot inhibit IH while AAC is in m-state (5). Preliminary data from (Bertholet, A. M. Chouchani., E. T.; Kazak, L.; Angelin, A.; Fedorenko, A.; Long, J. Z.; Vidoni, S.; Garrity, R.; Cho, J.; Terada, N.; Wallace, D.C.; Spiegelman, B. M.; and Kirichok, Y. Proton Transport is an Integral Function of the Mitochondrial ADP/ATP Carrier Nature July; 571(7766):515-520 (2019)).
Right panel: IH current densities at −160 mV for WT and ANT1^−/− mitoplasts. b, Representative currents induced by 50 μM DNP in WT and ANT1^−/− mitoplasts of heart. Right panel: IH current densities induced by 50 and 200 μM DNP at −160 mV in WT and ANT1^−/− mitoplasts.
We employed direct patch-clamp recording from vesicles of the whole intact inner mitochondrial membrane (IMM; so-called mitoplasts, FIG. 3), which allow high-resolution functional analysis of mitochondrial ion channels and transporters in their native membrane environment^10,36,37. […]
We recorded DNP-induced IH in heart of ANT1-deficient mice (ANT1 is the dominant isoform of ANT in this tissue).

human sperm = experiment: Human sperm basal beat frequency; assay type: cell-based; conditions: for sperm beat frequency / motility, result in words: human sperm, 1 μM NEN
Protocol: (§1) A) Human sperm were purified by swim-up method and their basal beat frequency (BF, in Hz) was measured as described in (Mannowetz, N., Naidoo, N. M., Choo, S. A., Smith, J. F. & Lishko, P. V. Slol is the principal potassium channel of human spermatozoa. eLife 2, e01009, doi:10.7554/eLife.01009 (2013)) in control HS solution ((1); in the presence of vehicle control ((2); […]. X's represent the mean of the sample, and dots represent individual data points. B) Human sperm mitochondrial membrane potential (MMP) assessment. Human sperm were incubated for 15 minutes in the presence of 0.1% DMSO (vehicle control), in the presence of 1 μM NEN or 0.75 μM […]. Samples from each condition (at least 100 of sperm midpieces per condition) were then assessed for fluorescence intensity measured with 45 nM MitoRed, which is a cell membrane permeable rhodamine-based dye. MitoRed localizes to mitochondria, and emits red fluorescence. The interaction of Mito Red with mitochondria depends on the membrane potential of the mitochondria. Uncoupled mitochondria emit less fluorescence. Data are standard boxplots, as in (A). C) Effect of sMU on human capacitated sperm hyperactivated motility. Cells were capacitated as described (11) for 4 hours. 4 μM Progesterone was added 2 minutes before imaging to trigger hyperactivation (HA). Cells were assessed as either Hyperactivated or Not Hyperactivated. N>45 cells. Error bars represent 95% CI calculated through the Wilson/Brown method.

human sperm mitochondria = experiment: Human sperm mitochondrial membrane potential (MMP) assessment with MitoRed; assay type: cell-based; conditions: 15 minutes incubation, 1 μM NEN or 0.75 μM BAM15, 45 nM MitoRed fluorescence
Protocol: Samples from each condition (at least 100 of sperm midpieces per condition) were then assessed for fluorescence intensity measured with 45 nM MitoRed, which is a cell membrane permeable rhodamine-based dye. MitoRed localizes to mitochondria, and emits red fluorescence. The interaction of Mito Red with mitochondria depends on the membrane potential of the mitochondria. Uncoupled mitochondria emit less fluorescence. Data are standard boxplots, as in (A). C) Effect of sMU on human capacitated sperm hyperactivated motility. Cells were capacitated as described (11) for 4 hours. 4 μM Progesterone was added 2 minutes before imaging to trigger hyperactivation (HA). Cells were assessed as either Hyperactivated or Not Hyperactivated. N>45 cells. Error bars represent 95% CI calculated through the Wilson/Brown method.

human capacitated sperm = experiment: Hyperactivated motility of capacitated human sperm triggered by progesterone; assay type: cell-based; conditions: capacitated 4 hours; 4 μM progesterone; concentrations as low as 1 μM
Protocol: as §1, with “4 μM Progesterone was added 2 minutes before imaging to trigger hyperactivation (HA).” left out, “N>45 cells.” left out

Compound	ANT-mediated H+ current (IH), regulators (ANT)	sperm beat frequency / motility, result in words (human sperm)	sperm mitochondrial uncoupling (sMU) as assessed by mitochondrial depolarization (human sperm mitochondria)	hyperactivation (hyperactivated motility) (human capacitated sperm)	other results
Nc1ncnc2c1ncn2[C@@H]1O[C@H](COP(=O)(O)OP(=O)(O)O)[C@@H](O)[C@H]1O [ADP]	transient inhibition	–	–	–	–
NCCO.O=C(Nc1ccc([N+](=O)[O-])cc1Cl)c1cc(Cl)ccc1O [NEN, niclosamide ethanolamine]	–	significantly decreases	uncouples human sperm mitochondria; also recorded: strong sMU	significantly decreases	–
CCCCC/C=C\C/C=C\C/C=C\C/C=C\CCCC(=O)O [arachidonic acid]	activated	–	–	–	–
O=[N+]([O-])c1ccc(O)c([N+](=O)[O-])c1 [DNP, 2,4-dinitrophenol]	–	–	uncouple sperm mitochondria	–	proton leak (IH) via ANT induced by uncoupler (ANT; whole-IMM patch-clamp, 50 and 200 μM DNP, heart mitoplasts WT and ANT1-/-, -160 mV): strongly and specifically activates proton leak via ANT; also recorded: primarily depends on ANT
C=C1[C@@H]2CC[C@H]3[C@]4(C)C[C@H](O[C@@H]5O[C@H](CO)[C@@H](OS(=O)(=O)O)[C@H](OS(=O)(=O)O)[C@H]5OC(=O)CC(C)C)CC(C(=O)O)(C(=O)O)[C@H]4CC[C@]3(C2)[C@H]1O [CATR, carboxyatractyloside]	–	–	–	–	inhibition of IH mediated by ANT (ANT; whole-IMM patch-clamp, classical ANT inhibitor): blocked
O=C(Nc1ccc([N+](=O)[O-])cc1Cl)c1cc(Cl)ccc1O [niclosamide]	–	significantly decreases sperm motility	uncouple sperm mitochondria	inhibited hyperactivation	sperm beat frequency (human sperm; human sperm purified by swim-up, decreased from 14 Hz, concentrations as low as 1 μM): 6 Hz; sperm mitochondrial uncoupling (sMU) as assessed by mitochondrial depolarization (human sperm mitochondria; listed as Niclosamide): uncouples mitochondria
